Legend:
[1] = Measurement of Log P values by HPLC on reversed phase columns (EEC directive 79/831 Annex V.A8), methods [a], [b], [c]; type: physicochemical; settings: method [a]
Experimental: Measurement of Log P values as provided herein was performed according to EEC directive 79/831 Annex V.A8 by HPLC (High Performance Liquid Chromatography) on reversed phase columns with the following methods: • ^[a]

Alternaria alternate = assay: in vitro-Test with Alternaria alternate (microtiter growth inhibition); type: cell-based; settings: alone
Experimental: (§1) The degree of efficacy expressed in % is denoted: 0% means an efficacy, which corresponds to that of the control, while an efficacy of 100% means that no disease is observed.
(§2) If the actual fungicidal activity exceeds the calculated value, then the activity of the combination is super-additive, i.e. a synergistic effect exists. In this case, the efficacy, which was actually observed, must be greater than the value for the expected efficacy (E), that was calculated from the abovementioned formula.
(§3) Example: In Vitro-Test with Fungal Microorganisms
(§4) Wells of 96-well microtiter plates are filled with 10 μl of a preparation of test compound or compound combination in methanol+emulsifier alkylaryl-polyglycol-ether. Thereafter, the solvent is evaporated in a hood. At the next step, 100 μl of liquid potato dextrose medium is given into each well, that has been amended with an appropriate concentration of spores or mycelium suspension of the test fungus.
(§5) With the aid of a photometer, the extinction in all wells is measured at the wavelength of 620 nm.
(§6) The microtiter plates are incubated at 20° C. and 85% relative humidity. The inhibition of growth is determined again photometrically 3-5 days after the application. Efficacy is calculated in relation to the untreated control, 0% efficacy means fungal growth as high as in untreated control while 100% efficacy means no fungal growth is measured.

Parastagonospora nodorum = assay: in vitro-Test with Parastagonospora nodorum (microtiter growth inhibition); type: cell-based
Experimental: as §1, §2, §3, §4, §5, §6

## O=C(NCCc1ccc(-c2ccncc2)cc1)c1cc(Cl)nnc1Oc1cccc(C(F)(F)F)c1 [I-542]
[1]
  LogP: 2.13^[a]

## Cc1cc(C(=O)NCCc2cccc3oc(C)nc23)c(Oc2cccc(C(F)(F)F)c2)nn1 [I-543]
[1]
  LogP: 2.96^[a]

## O=C(NCCc1ccc2c(c1)CCO2)c1cc(Cl)nnc1Oc1cccc(C(F)(F)F)c1 [I-551]
[1]
  LogP: 3.65^[a]

## O=C(NCc1cccc2cnccc12)c1cc(Cl)nnc1Oc1cccc(C(F)(F)F)c1 [I-559]
[1]
  LogP: 2.14^[a]

## CCc1cccc(Oc2nnc(Cl)cc2C(=O)NCC(F)(F)c2ccc(C)cc2C)c1 [I-570]
[1]
  LogP: 4.68^[a]

## O=C(NCCc1ccc2c(c1)OCCO2)c1cc(Cl)nnc1Oc1cccc(C(F)(F)F)c1 [I-573]
[1]
  LogP: 3.53^[a]

## C#Cc1cc(C(=O)NCC(F)(F)c2ccc(C)cc2C)c(Oc2cccc(C(F)(F)F)c2)nn1 [I-577]
[1]
  LogP: 4.31^[a]

## O=C(NCC(F)(F)c1ccc(Cl)cc1Cl)c1cc(Cl)nnc1Oc1cccc(C2CC2)c1F [I-598]
[1]
  LogP: 4.71^[a]

## Cc1ccc(C2(CNC(=O)c3cc(Cl)nnc3Oc3cccc(C(F)(F)F)c3)CC2)cc1 [I-601]
[1]
  LogP: 4.58^[a]

## O=C(NCC(F)(F)Oc1ccc(C(F)(F)F)cc1Cl)c1cc(Cl)nnc1Oc1cccc(C(F)(F)F)c1 [I-633]
[1]
  LogP: 4.58^[a]

## O=C(NCCc1ncc(Cl)cn1)c1cc(Cl)nnc1Oc1cccc(C(F)(F)F)c1 [I-635]
[1]
  LogP: 3.05^[a]

## COCCc1c(C2CC2)nnc(Oc2cccc(C(F)(F)F)c2)c1C(=O)NCC(F)(F)c1ccc(C)cc1C [I-636]
[1]
  LogP: 4.57^[a]

## Cc1c(C2CC2)nnc(Oc2cccc(C(F)(F)F)c2)c1C(=O)NCC(F)(F)c1ccc(Cl)cc1Cl [I-642]
[1]
  LogP: 4.43^[a]

## Cc1ccc(C(F)(F)CNC(=O)c2c(Oc3cccc(C(F)(F)F)c3)nnc(C3CC3)c2NC2CC2)c(C)c1 [I-650]
[1]
  LogP: 4.10^[a]

## Cc1ccc(C(F)(F)CNC(=O)c2cc(CCC#N)nnc2Oc2cccc(C(F)(F)F)c2)c(C)c1 [I-662]
[1]
  LogP: 3.78^[a]

## C=CCOc1c(Cl)nnc(Oc2cccc(C(F)(F)F)c2)c1C(=O)NCC(F)(F)c1ccc(C)cc1C [I-684]
[1]
  LogP: 4.87^[a]

## Cc1cnn(CCNC(=O)c2cc(C)nnc2Oc2cccc(C(F)(F)F)c2)c1 [I-691]
[1]
  LogP: 2.58^[a]

## CON(CCc1ccc(Cl)cc1Cl)C(=O)c1c(Oc2cccc(C3CC3)c2F)nnc(Cl)c1C [I-739]
[1]
  LogP: 5.36^[a]

## CNc1c(Cl)nnc(Oc2cccc(C3CC3)c2F)c1C(=O)NCCc1ccc(Cl)cc1Cl [I-757]
[1]
  LogP: 4.09^[a]

## Cc1ccc(C(F)(F)CNC(=O)c2cc(Cl)nnc2Oc2ccc3[nH]ccc3c2)c(C)c1 [I-769]
[1]
  LogP: 3.78^[a]

## C=C(C)OC(=O)N(CC(F)(F)c1ccc(C)cc1C)C(=O)c1cc(Cl)nnc1Oc1cccc(C(F)(F)F)c1 [I-785]
[1]
  LogP: 5.51^[a]

## COCCc1cc(C(=O)NCC(F)(F)c2ccc(C)cc2C)c(Oc2cccc(C(F)(F)F)c2)nn1 [I-796]
[1]
  LogP: 4.00^[a]

## Cc1ccc(C(F)(F)CNC(=O)c2cc(Cc3ccccc3)nnc2Oc2cccc(C(F)(F)F)c2)c(C)c1 [I-797]
[1]
  LogP: 4.95^[a]

## Cc1ccc(C(F)(F)CNC(=O)c2cc(CC3CCC3)nnc2Oc2cccc(C(F)(F)F)c2)c(C)c1 [I-798]
[1]
  LogP: 5.02^[a]

## Cc1ccc(C(F)(F)CNC(=O)c2c(Oc3cccc(C(F)(F)F)c3)nnc(Cl)c2NCCC2CC2)c(C)c1 [I-809]
[1]
  LogP: 4.95^[a]

## O=C(NCC(F)(F)c1cc(Cl)sc1Cl)c1cc(Cl)nnc1Oc1cccc(C(F)(F)F)c1 [I-825]
[1]; HPLC on reversed phase column
  LogP: 4.73^[a]

## Cn1cc(C(=O)Nc2ccc(F)cc2-c2ccc(Cl)c(Cl)c2)c(C(F)F)n1 [bixafen]
Alternaria alternate; 0.04 ppm
  Efficacy %: 79%
Alternaria alternate; 0.2 ppm
  Efficacy %: 81%
Alternaria alternate; 1.0 ppm
  Efficacy %: 86%
Parastagonospora nodorum; 0.2 ppm
  Efficacy: 34%
Parastagonospora nodorum; 1.0 ppm
  Efficacy: 41%
